Source: the CheMixHub viscosity set
Several values for one entry are separate records, joined by “and”; a condition that tells them apart may be missing. Equal values may be shown once.

Assay: xn = mol fraction of the nth substance listed

c1ccc2ccccc2c1 + CC(=O)O
viscosity
Conditions | 303.15 K | 308.15 K | 313.15 K | 318.15 K | 323.15 K
101 kPa, x1 = 0.06774 | 1.187 mPa·s | 1.093 mPa·s | 1.01 mPa·s | 0.9386 mPa·s | 0.8751 mPa·s
101 kPa, x1 = 0.116 | – | 1.108 mPa·s | 1.024 mPa·s | 0.951 mPa·s | 0.8838 mPa·s
101.33 kPa, x1 = 0.06774 | 1.187 mPa·s | 1.093 mPa·s | 1.01 mPa·s and 1.01 mPa·s | 0.9386 mPa·s | 0.8751 mPa·s
101.33 kPa, x1 = 0.08923 | – | – | 1.023 mPa·s | – | –
101.33 kPa, x1 = 0.116 | – | – | 1.024 mPa·s | – | –
101.33 kPa, x1 = 0.12 | – | 1.108 mPa·s | 1.024 mPa·s | 0.951 mPa·s | 0.8838 mPa·s
101.33 kPa, x1 = 0.1443 | – | – | 1.049 mPa·s | – | –

CCCC(=O)[O-].OCC[NH2+]CCO + CC(=O)O.NCCO
viscosity [mPa·s], 101.3 kPa
Conditions | x2 = 0.1516 | x2 = 0.2854 | x2 = 0.4059 | x2 = 0.5163 | x2 = 0.6146 | x2 = 0.7052 | x2 = 0.7885 | x2 = 0.8646 | x2 = 0.9348
293.15 K | 1991 | 2150 | 2309 | 2468 | 2628 | 2787 | 2946 | 3105 | 3264
298.15 K | 1330 | 1434 | 1538 | 1642 | 1746 | 1850 | 1955 | 2059 | 2163
303.15 K | 906.1 | 972.3 | 1039 | 1105 | 1171 | 1237 | 1303 | 1370 | 1436
308.15 K | 631.9 | 675.2 | 718.4 | 761.7 | 804.9 | 848.2 | 891.4 | 934.7 | 978
313.15 K | 450.1 | 479.1 | 508.1 | 537.1 | 566.1 | 595.1 | 624.1 | 653.1 | 682.1
318.15 K | 327 | 347 | 366.9 | 386.9 | 406.8 | 426.8 | 446.7 | 466.7 | 486.6
323.15 K | 242 | 256 | 270.1 | 284.1 | 298.1 | 312.2 | 326.2 | 340.2 | 354.3

COc1ccccc1 + CC(C)(C)O
viscosity [mPa·s], 100.33 kPa
Conditions | x1 = 0.1 | x1 = 0.1999 | x1 = 0.3002 | x1 = 0.4001 | x1 = 0.5 | x1 = 0.6001 | x1 = 0.6998 | x1 = 0.8001 | x1 = 0.9001
303.15 K | 2.101 | 1.758 | 1.484 | 1.272 | 1.143 | 1.011 | 0.954 | 0.928 | 0.919
313.15 K | 1.585 | 1.29 | 1.099 | 1.002 | 0.915 | 0.853 | 0.825 | 0.808 | 0.798
323.15 K | 1.222 | 1.022 | 0.887 | 0.815 | 0.773 | 0.743 | 0.722 | 0.711 | 0.701

CC1COC(=O)O1 (stereo unspecified) + CC(C)=O
303.15 K, 101.3 kPa
Conditions | viscosity [mPa·s]
x1 = 0.088 | 0.3518
x1 = 0.1784 | 0.4187
x1 = 0.2713 | 0.5016
x1 = 0.3668 | 0.6038
x1 = 0.4647 | 0.7316
x1 = 0.5657 | 0.8959
x1 = 0.6697 | 1.104
x1 = 0.7768 | 1.371
x1 = 0.8864 | 1.71

c1ccc2ccccc2c1 + CC(C)=O
viscosity [mPa·s], 101 kPa
Conditions | 298.15 K | 303.15 K | 308.15 K | 313.15 K
x1 = 0.1688 | 0.487 | 0.464 | 0.4428 | 0.4207
x1 = 0.2356 | 0.5618 | 0.5296 | 0.5029 | 0.4781

C1CCOC1 + CC(C)CC(C)(C)C
viscosity [mPa·s], 101 kPa
Conditions | x1 = 0.1001 | x1 = 0.2 | x1 = 0.3 | x1 = 0.4 | x1 = 0.5 | x1 = 0.6 | x1 = 0.7 | x1 = 0.8 | x1 = 0.9
298.15 K | 0.479 | 0.477 | 0.475 | 0.474 | 0.473 | 0.472 | 0.472 | 0.471 | 0.471
308.15 K | 0.433 | 0.432 | 0.432 | 0.431 | 0.431 | 0.432 | 0.432 | 0.432 | 0.432

CC(C)=O + CC(C)CC(C)(C)C
298.15 K, 101 kPa
Conditions | viscosity [mPa·s]
x1 = 0.0643 | 0.456
x1 = 0.1001 | 0.448
x1 = 0.2004 | 0.428
x1 = 0.2297 | 0.422
x1 = 0.2934 | 0.417
x1 = 0.3408 | 0.404
x1 = 0.3994 | 0.395
x1 = 0.5006 | 0.378
x1 = 0.5566 | 0.367
x1 = 0.5927 | 0.36
x1 = 0.7032 | 0.341
x1 = 0.7941 | 0.327
x1 = 0.8898 | 0.314

COc1ccccc1 + CC(C)CO
viscosity [mPa·s], 101.33 kPa
Conditions | x1 = 0.1001 | x1 = 0.2001 | x1 = 0.2999 | x1 = 0.4001 | x1 = 0.5 | x1 = 0.6001 | x1 = 0.7 | x1 = 0.8001 | x1 = 0.9002
303.15 K | 1.789 | 1.326 | 1.157 | 1.069 | 1.011 | 0.969 | 0.951 | 0.934 | 0.921
313.15 K | 1.355 | 1.064 | 0.933 | 0.862 | 0.845 | 0.831 | 0.816 | 0.803 | 0.792
323.15 K | 1.063 | 0.829 | 0.768 | 0.743 | 0.736 | 0.731 | 0.718 | 0.708 | 0.697
